# What was measured:
# Experiment in all cases: Weeding effect in post-emergence stage
# Type in all cases: in vivo
# Echinochloa crusgalli = conditions: for Weeding effect in post-emergence stage, Echinochloa crusgalli: level of fresh weight growth control rate; for Weeding effect in post-emergence stage, Echinochloa crusgalli (level): fresh weight control rate level
# In short: (§1)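 Doses of 500, 250, 125, 60, 30, 15 and 7.5 g/ha, with methyl oleate synergist (1.5 liter/ha) and Tween 80 from acetone solution, applied by spray tower post-emergence (2–3 leaf stage). Weed control scored after 3 further greenhouse weeks, averaged over triplicates.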
# Abutilon theophrasti = conditions: for Weeding effect in post-emergence stage, Abutilon theophrasti: level of fresh weight growth control rate; for Weeding effect in post-emergence stage, Abutilon theophrasti (level): fresh weight control rate level
# In short: as §1
# Alopecurus japonicus = conditions: for Weeding effect in post-emergence stage, Alopecurus japonicus: level of fresh weight growth control rate; for Weeding effect in post-emergence stage, Alopecurus japonicus (level): fresh weight control rate level
# In short: as §1
# Setaria viridis = conditions: for Weeding effect in post-emergence stage, Setaria viridis: level of fresh weight growth control rate; for Weeding effect in post-emergence stage, Setaria viridis (level): fresh weight control rate level
# In short: as §1
# Eleusine indica = conditions: for Weeding effect in post-emergence stage, Eleusine indica: level of fresh weight growth control rate; for Weeding effect in post-emergence stage, Eleusine indica (level): fresh weight control rate level
# In short: as §1
# Digitaria sanguinalis = conditions: for Weeding effect in post-emergence stage, Digitaria sanguinalis: level of fresh weight growth control rate; for Weeding effect in post-emergence stage, Digitaria sanguinalis (level): fresh weight control rate level
# In short: as §1
compound,measurement,setting,value
C[C@@H](O/N=C/c1cc(-n2c(=O)cc(C(F)(F)F)n(C)c2=O)c(F)cc1Cl)C(=O)OCc1ccccc1F [284(R)],"Weeding effect in post-emergence stage, Echinochloa crusgalli",Echinochloa crusgalli; Dose 15 g/ha,5 (Level 5: growth control rate is above 85%)
same,"Weeding effect in post-emergence stage, Abutilon theophrasti",Abutilon theophrasti; Dose 15 g/ha,5 (Level 5: growth control rate is above 85%)
same,"Weeding effect in post-emergence stage, Alopecurus japonicus",Alopecurus japonicus; Dose 15 g/ha,5 (Level 5: growth control rate is above 85%)
same,"Weeding effect in post-emergence stage, Setaria viridis",Setaria viridis; Dose 15 g/ha,5 (Level 5: growth control rate is above 85%)
same,"Weeding effect in post-emergence stage, Eleusine indica",Eleusine indica; Dose 15 g/ha,5 (Level 5: growth control rate is above 85%)
same,"Weeding effect in post-emergence stage, Digitaria sanguinalis",Digitaria sanguinalis; Dose 15 g/ha,5 (Level 5: growth control rate is above 85%)
COC(=O)C(O/N=C/c1cc(-n2c(=O)cc(C(F)(F)F)n(C)c2=O)c(F)cc1Cl)C1CCCC1 (stereo not drawn) [Compound 489],"Weeding effect in post-emergence stage, Echinochloa crusgalli (level)",Echinochloa crusgalli; Dose 15 g/ha,5 (Level 5: growth control rate is above 85%)
same,"Weeding effect in post-emergence stage, Abutilon theophrasti (level)",Abutilon theophrasti; Dose 15 g/ha,5 (Level 5: growth control rate is above 85%)
same,"Weeding effect in post-emergence stage, Alopecurus japonicus (level)",Alopecurus japonicus; Dose 15 g/ha,5 (Level 5: growth control rate is above 85%)
same,"Weeding effect in post-emergence stage, Setaria viridis (level)",Setaria viridis; Dose 15 g/ha,5 (Level 5: growth control rate is above 85%)
same,"Weeding effect in post-emergence stage, Eleusine indica (level)",Eleusine indica; Dose 15 g/ha,5 (Level 5: growth control rate is above 85%)
same,"Weeding effect in post-emergence stage, Digitaria sanguinalis (level)",Digitaria sanguinalis; Dose 15 g/ha,5 (Level 5: growth control rate is above 85%)
CCCCCOC(=O)[C@@H](C)O/N=C/c1cc(-n2c(=O)cc(C(F)(F)F)n(C)c2=O)c(F)cc1Cl [203(R)],"Weeding effect in post-emergence stage, Echinochloa crusgalli",Echinochloa crusgalli; Dose 15 g/ha,5 (Level 5: growth control rate is above 85%)
same,"Weeding effect in post-emergence stage, Abutilon theophrasti",Abutilon theophrasti; Dose 15 g/ha,5 (Level 5: growth control rate is above 85%)
same,"Weeding effect in post-emergence stage, Alopecurus japonicus",Alopecurus japonicus; Dose 15 g/ha,5 (Level 5: growth control rate is above 85%)
same,"Weeding effect in post-emergence stage, Setaria viridis",Setaria viridis; Dose 15 g/ha,5 (Level 5: growth control rate is above 85%)
same,"Weeding effect in post-emergence stage, Eleusine indica",Eleusine indica; Dose 15 g/ha,5 (Level 5: growth control rate is above 85%)
same,"Weeding effect in post-emergence stage, Digitaria sanguinalis",Digitaria sanguinalis; Dose 15 g/ha,5 (Level 5: growth control rate is above 85%)
COC(=O)CCOC(=O)C(C)O/N=C/c1cc(-n2c(=O)cc(C(F)(F)F)n(C)c2=O)c(F)cc1Cl (stereo not drawn) [Compound 240],"Weeding effect in post-emergence stage, Echinochloa crusgalli",Echinochloa crusgalli; Dose 30 g/ha,5 (Level 5: growth control rate is above 85%)
same,"Weeding effect in post-emergence stage, Abutilon theophrasti",Abutilon theophrasti; Dose 30 g/ha,5 (Level 5: growth control rate is above 85%)
same,"Weeding effect in post-emergence stage, Alopecurus japonicus",Alopecurus japonicus; Dose 30 g/ha,5 (Level 5: growth control rate is above 85%)
same,"Weeding effect in post-emergence stage, Setaria viridis",Setaria viridis; Dose 30 g/ha,5 (Level 5: growth control rate is above 85%)
same,"Weeding effect in post-emergence stage, Eleusine indica",Eleusine indica; Dose 30 g/ha,5 (Level 5: growth control rate is above 85%)
same,"Weeding effect in post-emergence stage, Digitaria sanguinalis",Digitaria sanguinalis; Dose 30 g/ha,5 (Level 5: growth control rate is above 85%)
CCn1c(C(F)(F)F)cc(=O)n(-c2cc(/C=N/OC(C)C(=O)OC)c(Cl)cc2F)c1=O (stereo not drawn) [Compound 426],"Weeding effect in post-emergence stage, Echinochloa crusgalli (level)",Echinochloa crusgalli; Dose 250 g/ha,5 (Level 5: growth control rate is above 85%)
same,"Weeding effect in post-emergence stage, Abutilon theophrasti (level)",Abutilon theophrasti; Dose 250 g/ha,5 (Level 5: growth control rate is above 85%)
same,"Weeding effect in post-emergence stage, Alopecurus japonicus (level)",Alopecurus japonicus; Dose 250 g/ha,5 (Level 5: growth control rate is above 85%)
same,"Weeding effect in post-emergence stage, Setaria viridis (level)",Setaria viridis; Dose 250 g/ha,5 (Level 5: growth control rate is above 85%)
same,"Weeding effect in post-emergence stage, Eleusine indica (level)",Eleusine indica; Dose 250 g/ha,5 (Level 5: growth control rate is above 85%)
same,"Weeding effect in post-emergence stage, Digitaria sanguinalis (level)",Digitaria sanguinalis; Dose 250 g/ha,5 (Level 5: growth control rate is above 85%)
C[C@@H](O/N=C/c1cc(-n2c(=O)cc(C(F)(F)F)n(C)c2=O)c(F)cc1Cl)C(=O)OCCN(C)C [448(R)],"Weeding effect in post-emergence stage, Echinochloa crusgalli (level)",Echinochloa crusgalli; Dose 15 g/ha,5 (Level 5: growth control rate is above 85%)
same,"Weeding effect in post-emergence stage, Abutilon theophrasti (level)",Abutilon theophrasti; Dose 15 g/ha,5 (Level 5: growth control rate is above 85%)
same,"Weeding effect in post-emergence stage, Alopecurus japonicus (level)",Alopecurus japonicus; Dose 15 g/ha,5 (Level 5: growth control rate is above 85%)
same,"Weeding effect in post-emergence stage, Setaria viridis (level)",Setaria viridis; Dose 15 g/ha,5 (Level 5: growth control rate is above 85%)
same,"Weeding effect in post-emergence stage, Eleusine indica (level)",Eleusine indica; Dose 15 g/ha,5 (Level 5: growth control rate is above 85%)
same,"Weeding effect in post-emergence stage, Digitaria sanguinalis (level)",Digitaria sanguinalis; Dose 15 g/ha,5 (Level 5: growth control rate is above 85%)
"CO/N=C/c1cc(-n2c(=O)n(C)c(=S)n(C)c2=O)c(F)cc1Cl [Control compound A, reference compound]","Weeding effect in post-emergence stage, Echinochloa crusgalli (level)",Echinochloa crusgalli; Dose 15 g/ha,0 (Level 0: growth control rate is less than 5%)
same,"Weeding effect in post-emergence stage, Abutilon theophrasti (level)",Abutilon theophrasti; Dose 15 g/ha,3 (Level 3: growth control rate is greater than or equal to 40% and less than 60%)
same,"Weeding effect in post-emergence stage, Alopecurus japonicus (level)",Alopecurus japonicus; Dose 15 g/ha,0 (Level 0: growth control rate is less than 5%)
same,"Weeding effect in post-emergence stage, Setaria viridis (level)",Setaria viridis; Dose 15 g/ha,1 (Level 1: growth control rate is greater than or equal to 5% and less than 20%)
same,"Weeding effect in post-emergence stage, Eleusine indica (level)",Eleusine indica; Dose 15 g/ha,1 (Level 1: growth control rate is greater than or equal to 5% and less than 20%)
same,"Weeding effect in post-emergence stage, Digitaria sanguinalis (level)",Digitaria sanguinalis; Dose 15 g/ha,1 (Level 1: growth control rate is greater than or equal to 5% and less than 20%)

# Source: patent publication US20230111310A1, “CARBOXYLIC ACID DERIVATIVE-SUBSTITUTED IMINO ARYL COMPOUND, PREPARATION METHOD THEREFOR, HERBICIDAL COMPOSITION AND USE THEREOF” (Qingdao Kingagroot Chemical Compound Co., Ltd., priority 2020, published 2023)
